What was measured:
galectin-3 = galectin-3 (Homo sapiens (Human), UniProt P17931); assay: Fluorescence anisotropy assay: compound as inhibitor of the interaction between galectin and a fluorescein tagged saccharide probe; assay type: binding; conditions: 50 nM galectin-3, 100 nM albumin for high affinity compounds
Experimental: 100 nM albumin was included as a carrier to prevent protein loss at such low concentration of galectin.

galectins = conditions: cited from earlier work

Chain of galectin-3 (P17931 whole entry): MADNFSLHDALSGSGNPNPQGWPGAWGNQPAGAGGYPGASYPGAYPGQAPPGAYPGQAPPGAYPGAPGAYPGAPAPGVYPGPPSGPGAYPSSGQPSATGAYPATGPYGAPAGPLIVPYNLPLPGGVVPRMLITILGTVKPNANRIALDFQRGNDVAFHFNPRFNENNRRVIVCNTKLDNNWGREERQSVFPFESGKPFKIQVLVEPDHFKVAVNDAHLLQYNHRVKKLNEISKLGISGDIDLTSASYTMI

Row | Kd (galectin-3) | Compound | affinity relative to lactose (galectins)
1 | 560 nM | O=C(NCC(F)(F)F)c1cn([C@@H]2C(O)[C@@H](Sc3ccc(Cl)c(Cl)c3)OC(CO)[C@@H]2O)nn1 (stereo in doubt) [Example 98] | –
2 | – | O=C[C@H](O)[C@@H](O)[C@@H](O)[C@H](O)CO [D-galactose, D-(+)-galactose] | 50-100 times lower

From patent US11377464B2, “Galactoside inhibitor of galectins” (Galecto Biotech AB, priority 2015, dated 2022)
